Source: ChEMBL document CHEMBL5131473, “One-pot synthesis of oxoaporphines as potent antitumor agents and investigation of their mechanisms of actions” (Eur J Med Chem, 2022)
Activity calls are given as the source filed them. No cut-off for these calls is given here.

Columns and labels:
WI-38 [1] = experiment: Cytotoxicity against human WI-38 cells by MTT assay; type: toxicity, cell-based
[2] = Toxicity in BALB/C nude mouse xenografted with human T24 cells assessed as effect on liver at 30 mg/kg, IG administered every 2 days for 14 days by H and E staining based assay; type: organism-based, T-24; details: in vivo, po, 336 h, time 14 day
[3] = Toxicity in BALB/C nude mouse xenografted with human T24 cells assessed as effect on lung at 30 mg/kg, IG administered every 2 days for 14 days by H and E staining based assay; type: organism-based, T-24; details: in vivo, po, 336 h, time 14 day
[4] = Toxicity in BALB/C nude mouse xenografted with human T24 cells assessed as effect on kidney at 30 mg/kg, IG administered every 2 days for 14 days by H and E staining based assay; type: organism-based, T-24; details: in vivo, po, 336 h, time 14 day
HepG2 = experiment: Antiproliferative activity against human HepG2 cells assessed as cell growth inhibition measured after 48 hrs by MTT assay; type: functional, cell-based; details: HepG2, 48 h
MGC-803 = experiment: Antiproliferative activity against human MGC-803 cells assessed as cell growth inhibition measured after 48 hrs by MTT assay; type: functional, cell-based; details: MGC-803, 48 h
T-24 [5] = experiment: Antiproliferative activity against human T24 cells assessed as cell growth inhibition measured after 48 hrs by MTT assay; type: functional, cell-based; details: T-24, 48 h
SK-OV-3 = experiment: Antiproliferative activity against human SK-OV-3 cells assessed as cell growth inhibition measured after 48 hrs by MTT assay; type: functional, cell-based; details: SK-OV-3, 48 h
WI-38 [6] = experiment: Antiproliferative activity against human WI-38 cells assessed as cell growth inhibition measured after 48 hrs by MTT assay; type: functional, cell-based; details: WI-38, 48 h
T-24 [7] = experiment: Cytotoxicity against human T24 cells assessed as decrease in cell viability measured after 48 hrs by MTT assay; type: toxicity, cell-based; details: t-24, 48 h, 20 µM, DDE = dose-dependent effect
T-24 [8] = experiment: Induction of cell cycle arrest in human T24 cells assessed as increase in CDK1 expression at 0.5 to 1 uM incubated for 24 hrs by chemiluminescence based Western blotting analysis; type: functional; details: dose 0.5-1 µM, DDE = dose-dependent effect
T-24 [9] = experiment: Induction of mitochondrial membrane potential dysfunction in human T24 cells assessed as shrinking mitochondria at 0.5 uM incubated for 24 hrs by TEM analysis; type: functional, cell-based
T-24 [10] = experiment: Induction of mitochondrial mediated apoptosis in human T24 cells assessed as decrease in Bcl-2 protein expression at 0.5 to 1 uM incubated for 24 hrs by Western blotting analysis; type: functional, cell-based; details: dose 0.5-1 µM
T-24 [11] = experiment: Antitumor activity against human T24 cells xenografted in BALB/c nude mouse assessed as reduction in tumor volume at 30 mg/kg, IG administered every 2 days for 14 days; type: functional; details: time 14 day
T-24 [12] = experiment: Antitumor activity against human T24 cells xenografted in BALB/c nude mouse assessed as tumor growth inhibition at 30 mg/kg, IG administered every 2 days for 14 days; type: functional; parameters: scale not given: the % may be the effect or the level left; details: time 14 day
[13] = Toxicity in BALB/C nude mouse xenografted with human T24 cells assessed as decrease in body weight at 30 mg/kg, IG administered every 2 days for 14 days; type: organism-based, T-24; details: in vivo, po, 336 h, time 14 day
[14] = Toxicity in BALB/C nude mouse xenografted with human T24 cells assessed as effect on heart at 30 mg/kg, IG administered every 2 days for 14 days by H and E staining based assay; type: organism-based, T-24; details: in vivo, po, 336 h, time 14 day
T-24 [15] = experiment: Antitumor activity against human T24 cells xenografted in BALB/c nude mouse assessed as inhibition of tumor metastasis in liver at 30 mg/kg, IG administered every 2 days for 14 days; type: functional, organism-based; details: time 2.0 day
T-24 [16] = experiment: Induction of apoptosis in human T24 cells assessed as necrotic cells at 2 uM incubated for 24 hrs by Annexin-V/PI staining based flow cytometry analysis (reference value: 1.92 %); type: functional
T-24 [17] = experiment: Induction of apoptosis in human T24 cells assessed as late apoptotic cells at 2 uM incubated for 24 hrs by Annexin-V/PI staining based flow cytometry analysis (reference value: 0.543 %); type: functional
T-24 [18] = experiment: Induction of apoptosis in human T24 cells assessed as early apoptotic cells at 2 uM incubated for 24 hrs by Annexin-V/PI staining based flow cytometry analysis (reference value: 3.27 %); type: functional
T-24 [19] = experiment: Induction of apoptosis in human T24 cells assessed as viable cells at 2 uM incubated for 24 hrs by Annexin-V/PI staining based flow cytometry analysis (reference value: 94.3 %); type: functional; details: read-out: Activity
WI-38 [20] = experiment: Induction of apoptosis in human WI-38 cells at IC50; type: toxicity, cell-based
T-24 [21] = experiment: Induction of Ca2+ production in human T24 cells assessed as increase in intracellular Ca2+ concentration at 10 uM by Fluo3-AM staining based fluorescence microscopic method; type: functional, cell-based
T-24 [22] = experiment: Induction of DNA damage in human T24 cells assessed as DNA strand breakage by measuring comet formation at 10 uM incubated for 24 hrs by comet assay; type: functional, cell-based
T-24 [23] = experiment: Induction of mitochondrial membrane potential dysfunction in human T24 cells assessed as decrease in ATP production at 15 uM; type: functional; parameters: scale not given: the % may be the effect or the level left
T-24 [24] = experiment: Induction of apoptosis in human T24 cells assessed as necrotic cells at 10 uM incubated for 24 hrs by Annexin-V/PI staining based flow cytometry analysis (reference value: 1.92 %); type: functional
T-24 [25] = experiment: Induction of apoptosis in human T24 cells assessed as late apoptotic cells at 10 uM incubated for 24 hrs by Annexin-V/PI staining based flow cytometry analysis (reference value: 0.543 %); type: functional
T-24 [26] = experiment: Induction of apoptosis in human T24 cells assessed as early apoptotic cells at 20 uM incubated for 24 hrs by Annexin-V/PI staining based flow cytometry analysis (reference value: 3.27 %); type: functional
T-24 [27] = experiment: Inhibition of colony formation in human T24 cells 0.2 to 10 uM incubated for 24 hrs and measured for 10 days; type: functional, cell-based; details: dose 0.2-10 µM
T-24 [28] = experiment: Induction of mitochondrial membrane potential dysfunction in human T24 cells assessed as mitochondrial fragment condensation at 10 to 15 uM by mito-tracker green dye based fluorescence microscopy; type: functional, cell-based; details: dose 10-15 µM
T-24 [29] = experiment: Induction of DNA damage in human T24 cells assessed as increase in gamma H2AX phosphorylation at 2 uM incubated for 24 hrs by Hoechst33258 staining based immunofluorescence assay; type: functional, cell-based
T-24 [30] = experiment: Inhibition of colony formation in human T24 cells at 0.08 uM incubated for 24 hrs and measured for 10 days; type: functional, cell-based
T-24 [31] = experiment: Induction of mitochondrial membrane potential dysfunction in human T24 cells assessed as depolarised cells at 2 uM incubated for 24 hrs by JC-1 staining based flow cytometry (reference value: 6.20%); type: functional
T-24 [32] = experiment: Induction of mitochondrial membrane potential dysfunction in human T24 cells assessed as shrinking mitochondria at 2 uM incubated for 24 hrs by TEM analysis; type: functional, cell-based
T-24 [33] = experiment: Induction of mitochondrial ROS generation in human T24 cells at 2 uM measured after 24 hrs by DCFH-DA staining based confocal microscopy method; type: functional, cell-based
T-24 [34] = experiment: Induction of apoptosis in human T24 cells assessed as late apoptotic cells at 6 uM incubated for 24 hrs by Annexin-V/PI staining based flow cytometry analysis (reference value: 0.543 %); type: functional
T-24 [35] = experiment: Induction of mitochondrial membrane potential dysfunction in human T24 cells assessed as nuclear condensation at 2 to 4 uM by mito-tracker green dye based fluorescence microscopy; type: functional, cell-based; details: dose 2-4 µM

| IC50 (HepG2) [µM] | IC50 (MGC-803) [µM] | IC50 (SK-OV-3) [µM] | SMILES | Activity (WI-38 [1]) | Activity [2] | Activity [3] | Activity [4] | IC50 (T-24 [5]) [µM] | IC50 (WI-38 [6]) [µM] | Activity (T-24 [7]) | Activity (T-24 [11]) [mm3] | Activity (T-24 [12]) [%] | Activity [13] | Activity [14] | Activity (T-24 [15]) | Activity (T-24 [16]) [%] | Activity (T-24 [17]) [%] | Activity (T-24 [18]) [%] | viability at 2 µM (T-24 [19]) [%] | Activity (WI-38 [20]) | further results |
| --- | --- | --- | --- | --- | --- | --- | --- | --- | --- | --- | --- | --- | --- | --- | --- | --- | --- | --- | --- | --- | --- |
| 1.3 | 1.1 | 8.9 | O=C1c2ccccc2-c2ccc([N+](=O)[O-])c3ccnc1c23 | Non-Toxic | Non-Toxic | Non-Toxic | Non-Toxic | 0.5 | 14.8 | Dde | 605.28 | 49.5 | Non-Toxic | Non-Toxic | Active | 0.914 | 8.68 | 57.7 | 32.7 | Non-Toxic | Activity (T-24 [8]): Dde; Activity (T-24 [9]): Active; Activity (T-24 [10]): Active |
| 12.3 | 12.6 | 37 | O=C1c2ccccc2-c2cccc3ccnc1c23 | Non-Toxic | Non-Toxic | Non-Toxic | Non-Toxic | 9.5 | 20.2 | Dde | 722.033 | 40.8 | Non-Toxic | Non-Toxic | Active | – | – | – | – | Non-Toxic | Activity (T-24 [21]): Active; Activity (T-24 [22]): Active; Activity (T-24 [23]): 66.2%; Activity (T-24 [24]): 3.31%; Activity (T-24 [25]): 3.25%; Activity (T-24 [26]): 36.6%; inhibition (T-24 [27]): Active; Activity (T-24 [28]): Active |
| 2.2 | 2.3 | 16 | O=C1c2cc([N+](=O)[O-])ccc2-c2ccc([N+](=O)[O-])c3ccnc1c23 | Non-Toxic | Non-Toxic | Non-Toxic | Non-Toxic | 2 | 20.4 | Dde | 846.52 | 30.7 | Non-Toxic | Non-Toxic | Active | 1.97 | 4.79 | 27.4 | 65.8 | Non-Toxic | Activity (T-24 [29]): Active; inhibition (T-24 [30]): Active; Activity (T-24 [31]): 15.9%; Activity (T-24 [32]): Active; Activity (T-24 [33]): Active; Activity (T-24 [34]): 6.56%; Activity (T-24 [35]): Active |
